Measurements as given in ChEMBL document CHEMBL2062419, “Synthesis and antiviral activities of hexadecyloxypropyl prodrugs of acyclic nucleoside phosphonates containing guanine or hypoxanthine and a (S)-HPMP or PEE acyclic moiety” (Eur J Med Chem, 2012).
Calls of active or inactive are those of the source. No cut-off for these calls is given here.

Assays:
Human alphaherpesvirus 3 [1] = test: Antiviral activity against thymidine kinase positive VZV YS infected in HEL cells by plaque formation assay; assay type: functional, organism-based; details: Human alphaherpesvirus 3, YS
Human alphaherpesvirus 3 [2] = test: Antiviral activity against thymidine kinase negative VZV 07/01 infected in HEL cells by plaque formation assay; assay type: functional, organism-based; details: Human alphaherpesvirus 3, 07/01, HEL
Human alphaherpesvirus 3 [3] = test: Antiviral activity against thymidine kinase negative VZV YS/R infected in HEL cells by plaque formation assay; assay type: functional, organism-based; details: Human alphaherpesvirus 3, YS/R
Human alphaherpesvirus 1 [4] = test: Antiviral activity against HSV1 KOS infected in HEL cells by viral CPE assay; assay type: functional, organism-based; details: Human alphaherpesvirus 1, KOS
Human alphaherpesvirus 2 = test: Antiviral activity against HSV2 G infected in HEL cells by viral CPE assay; assay type: functional, organism-based; details: Human alphaherpesvirus 2, strain G
Human alphaherpesvirus 1 [5] = test: Antiviral activity against thymidine kinase negative and ACV resistant HSV1 KOS infected in HEL cells by viral CPE assay; assay type: functional, organism-based; details: Human alphaherpesvirus 1, KOS
[6] = Cytotoxicity against HEL cells assessed as effect on cell morphology incubated for 3 days by microscopy; assay type: cell-based; details: human
HEL = test: Cytotoxicity against HEL cells assessed as effect on cell growth incubated for 3 days by Coulter counter assay; assay type: cell-based; details: human, 72 h
Human alphaherpesvirus 3 [7] = test: Antiviral activity against thymidine kinase positive VZV OKa infected in HEL cells by plaque formation assay; assay type: functional, cell-based, Human herpesvirus 3 strain Oka vaccine; details: Human alphaherpesvirus 3, OKa
Human betaherpesvirus 5 [8] = test: Antiviral activity against HCMV AD169 infected in HEL cells by viral CPE assay; assay type: functional, organism-based; details: Human betaherpesvirus 5, AD169, HEL
Human betaherpesvirus 5 [9] = test: Antiviral activity against HCMV Davis infected in HEL cells by viral CPE assay; assay type: functional, organism-based; details: Human betaherpesvirus 5, Davis
Felid alphaherpesvirus 1 = test: Antiviral activity against Feline herpesvirus infected in CRFK cells by viral CPE assay; assay type: functional, organism-based; details: Felid alphaherpesvirus 1, CRFK
Vaccinia virus = test: Antiviral activity against Vaccinia virus Lederie infected in HEL cells by viral CPE assay; assay type: functional, organism-based; details: Orthopoxvirus vaccinia
[10] = system: Human immunodeficiency virus 1; test: Antiviral activity against HIV1 3B infected in human CEM cells assessed as reduction in virus-induced CEM giant cell formation incubated for 4 days at 37 degC by microscopy; assay type: functional, organism-based; details: CCRF-CEM
[11] = system: Human immunodeficiency virus 2; test: Antiviral activity against HIV2 ROD infected in human CEM cells assessed as reduction in virus-induced CEM giant cell formation incubated for 4 days at 37 degC by microscopy; assay type: functional, organism-based; details: ISOLATE ROD, CCRF-CEM
[12] = system: Vesicular stomatitis virus; test: Antiviral activity against VSV by viral CPE assay; assay type: functional, organism-based
Coxsackievirus B4 = test: Antiviral activity against Human coxsackievirus B4 by viral CPE assay; assay type: functional, organism-based
[13] = system: Respiratory syncytial virus; test: Antiviral activity against Respiratory syncytial virus Long by viral CPE assay; assay type: functional, organism-based
Human respirovirus 3 = test: Antiviral activity against Human parainfluenza virus 3 by viral CPE assay; assay type: functional, organism-based
[14] = system: Mammalian orthoreovirus 1; test: Antiviral activity against Reovirus 1 by viral CPE assay; assay type: functional, organism-based
Sindbis virus = test: Antiviral activity against Sindbis virus by viral CPE assay; assay type: functional, organism-based
Punta Toro virus = test: Antiviral activity against Punta Toro virus by viral CPE assay; assay type: functional, organism-based
[15] = Selectivity index, ratio of cytotoxic CC50 for HEL cells to EC50 for VZV YS
[16] = Selectivity index, ratio of cytotoxic CC50 for HEL cells to EC50 for VZV YS/R
[17] = Selectivity index, ratio of cytotoxic CC50 for HEL cells to EC50 for VZV 07/01
[18] = Selectivity index, ratio of cytotoxic CC50 for HEL cells to EC50 for VZV Oka
[19] = Selectivity index, ratio of cytotoxic CC50 for HEL cells to EC50 for HSV1 KOS
[20] = Selectivity index, ratio of cytotoxic CC50 for HEL cells to EC50 for HSV2 G
[21] = Selectivity index, ratio of cytotoxic CC50 for HEL cells to EC50 for ACV resistant HSV1 KOS
[22] = Selectivity index, ratio of cytotoxic CC50 for HEL cells to EC50 for HCMV AD169
[23] = Selectivity index, ratio of cytotoxic CC50 for HEL cells to EC50 for HCMV Davis
[24] = Selectivity index, ratio of cytotoxic CC50 for HEL cells to EC50 for Vaccinia virus Lederie; assay type: toxicity, cell-based; details: human, read-out: Ratio CC50/EC50
[25] = Selectivity index, ratio of cytotoxic CC50 for HEL cells to EC50 for Feline herpesvirus; assay type: toxicity, cell-based; details: human, read-out: Ratio CC50/EC50

SMILES	EC50 (Human alphaherpesvirus 3 [1])	EC50 (Human alphaherpesvirus 3 [2])	EC50 (Human alphaherpesvirus 1 [4])	EC50 (Human alphaherpesvirus 2)	EC50 (Human alphaherpesvirus 1 [5])	MCC at 72 h [6]	CC50 (HEL)	EC50 (Human alphaherpesvirus 3 [7])	EC50 (Human betaherpesvirus 5 [8])	EC50 (Human betaherpesvirus 5 [9])	EC50 (Felid alphaherpesvirus 1)	EC50 (Vaccinia virus)	Ratio CC50/EC50 [17]	Ratio CC50/EC50 [18]	Ratio CC50/EC50 [19]	Ratio CC50/EC50 [20]	Ratio CC50/EC50 [21]	Ratio CC50/EC50 [22]	Ratio CC50/EC50 [23]	selectivity ratio [24]	further results
O=c1[nH]c(=O)n([C@H]2C[C@H](O)[C@@H](CO)O2)cc1/C=C/Br [BRIVUDINE]	6 nM	53000 nM	38 nM	105000 nM	≥ 183000 nM	> 300 µM	347000 nM														EC50 (Human alphaherpesvirus 3 [3]): ≥ 120000 nM
CCCCCCCCCCCCCCCCOCCCOP(=O)(CO[C@H](CO)Cn1cnc2c(=O)[nH]c(N)nc21)OCCCOCCCCCCCCCCCCCCCC	1200 nM	1400 nM	11900 nM	23200 nM	30500 nM	≥ 22.6 µM	> 113000 nM	3900 nM	11900 nM	10100 nM	> 113000 nM	44700 nM	>81	>29	>9	>5	>4	>9	>11	> 2.5	EC50 (Human alphaherpesvirus 3 [3]): 2000 nM; Activity [10]: inactive; Activity [11]: inactive; Activity [12]: inactive; Activity (Coxsackievirus B4): inactive; Activity [13]: inactive; Activity (Human respirovirus 3): inactive; Activity [14]: inactive; Activity (Sindbis virus): inactive; Activity (Punta Toro virus): inactive; Ratio CC50/EC50 [15]: >94; Ratio CC50/EC50 [16]: >57
Nc1nc2c(ncn2C[C@@H](CO)OCP(=O)(O)O)c(=O)[nH]1		210 nM	780 nM	780 nM	780 nM	> 100 µM	39000 nM	560 nM	1800 nM	1500 nM	720 nM	1100 nM	186	70	50	50	50	22	26	35	selectivity ratio [25]: 157
CCCCCCCCCCCCCCCCOCCCOP(=O)(O)CO[C@H](CO)Cn1cnc2c(=O)[nH]c(N)nc21	2.5 nM	1.7 nM	8 nM	7 nM	12 nM	≥ 1.3 µM	720 nM	2 nM	6.6 nM	2.2 nM	> 1330 nM	11 nM	423	360	90	103	60	109	327	65	Activity [10]: inactive; Activity [11]: inactive; Activity [12]: inactive; Activity (Coxsackievirus B4): inactive; Activity [13]: inactive; Activity (Human respirovirus 3): inactive; Activity [14]: inactive; Activity (Sindbis virus): inactive; Activity (Punta Toro virus): inactive; Ratio CC50/EC50 [15]: 288
CCCCCCCCCCCCCCCCOCCCOP1(=O)CO[C@@H](Cn2cnc3c(=O)[nH]c(N)nc32)CO1 (mixture of isomers)	1 nM	5 nM	34 nM	80 nM	90 nM	≥ 171 µM	19000 nM	7 nM	5 nM	2 nM	430 nM	130 nM	3800	2700	559	238	211	3800	9500	146	EC50 (Human alphaherpesvirus 3 [3]): 5 nM; Activity [10]: inactive; Activity [11]: inactive; Activity [12]: inactive; Activity (Coxsackievirus B4): inactive; Activity [13]: inactive; Activity (Human respirovirus 3): inactive; Activity [14]: inactive; Activity (Sindbis virus): inactive; Activity (Punta Toro virus): inactive; Ratio CC50/EC50 [15]: 19000; Ratio CC50/EC50 [16]: 3800; selectivity ratio [25]: 398
Nc1nc2c(ncn2C[C@H]2COP(=O)(O)CO2)c(=O)[nH]1		230 nM	660 nM	660 nM	500 nM	> 100 µM	17000 nM	100 nM	1500 nM	1600 nM	900 nM	1000 nM	74	170	26	26	34	11	11	17	selectivity ratio [25]: 96
